pIC50: −log10 of the molar value.

The pIC50 is the negative decadic logarithm of the IC50, by convention in mol/L.

In this experiment the target is T1, human kinase Mps-1 (Homo sapiens, UniProt P33981).
T1 construct: N-terminally GST-tagged human full length recombinant Mps-1 kinase; purchased Invitrogen, Karslruhe, Germany PV4071
T1 sequence (P33981 1-857): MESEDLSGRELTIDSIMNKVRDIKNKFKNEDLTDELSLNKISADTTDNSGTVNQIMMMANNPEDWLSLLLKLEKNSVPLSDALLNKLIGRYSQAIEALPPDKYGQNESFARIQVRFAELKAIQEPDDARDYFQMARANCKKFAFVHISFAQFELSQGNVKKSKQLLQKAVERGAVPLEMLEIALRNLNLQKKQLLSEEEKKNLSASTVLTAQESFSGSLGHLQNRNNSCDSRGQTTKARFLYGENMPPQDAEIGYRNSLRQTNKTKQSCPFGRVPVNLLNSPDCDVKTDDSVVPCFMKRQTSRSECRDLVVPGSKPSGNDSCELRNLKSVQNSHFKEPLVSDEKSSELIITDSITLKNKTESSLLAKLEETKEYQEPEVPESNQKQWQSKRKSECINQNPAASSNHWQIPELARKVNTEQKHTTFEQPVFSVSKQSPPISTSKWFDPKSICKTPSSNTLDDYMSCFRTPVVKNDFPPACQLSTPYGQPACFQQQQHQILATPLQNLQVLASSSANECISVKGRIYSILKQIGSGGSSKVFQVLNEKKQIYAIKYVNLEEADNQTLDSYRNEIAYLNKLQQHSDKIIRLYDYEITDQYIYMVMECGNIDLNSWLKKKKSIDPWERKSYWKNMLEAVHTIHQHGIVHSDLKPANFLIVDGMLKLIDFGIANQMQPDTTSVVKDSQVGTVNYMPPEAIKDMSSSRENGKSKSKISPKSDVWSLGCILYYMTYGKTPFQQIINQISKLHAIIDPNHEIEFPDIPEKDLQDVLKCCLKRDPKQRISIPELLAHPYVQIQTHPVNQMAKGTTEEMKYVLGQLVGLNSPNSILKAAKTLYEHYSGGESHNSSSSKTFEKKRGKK
Nature of the experiment: Mps-1 kinase assay (HTRF). It counts as biochemical. The note with it: lowATP; mean; read-out: Mps1 lowATP mean IC50. The procedure, abridged:
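HTRF readout: EDTA-stopped reactions incubated 1 h with europium anti-phospho(Ser/Thr) antibody and streptavidin-XLent, emission ratio 665/620 nm after 350 nm excitation. Kinase step: compound pre-bound 15 min to ~1 nM GST-Mps-1, then 60 min at 22 °C with ATP and biotin-peptide substrate; inhibition scaled between no-inhibitor (0%) and no-enzyme (100%) controls.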
For orientation: Time-resolved FRET reads energy transfer from a long-lived donor to a nearby acceptor.
As to `N#Cc1ccc2c(c1)nc(NCc1cccnc1)c1ncc(-c3ccc(C(=O)NC4CC4)c(Cl)c3)n12` [Example 2-245, 2-chloro-4-{7-cyano-4-[(pyridin-3-ylmethyl)amino]imidazo[1,2-a]quinoxalin-1-yl}-N-cyclopropylbenzamide], the pIC50 was 5.95.

As for `O=C(NC1CC1)c1ccc(-c2cnc3c(NCc4ccncc4)nc4cc(F)c(F)cc4n23)cc1Cl` [Example 2-136, 2-chloro-N-cyclopropyl-4-{7,8-difluoro-4-[(pyridin-4-ylmethyl)amino]imidazo[1,2-a]quinoxalin-1-yl}benzamide], the pIC50 is 5.77.

Regarding `CC(C)CNc1nc2ccccc2n2c(-c3ccc(C(=O)NC4CC4)c(Cl)c3)cnc12` [Example 1-47, 2-chloro-N-cyclopropyl-4-{4-[(2-methylpropyl)amino]imidazo[1,2-a]quinoxalin-1-yl}benzamide], the pIC50 is 6.44.

As for `Cc1cc2nc(NCC(C)C)c3ncc(-c4ccc(C(=O)NC5CC5)cc4)n3c2cc1C` [Example 2-154, N-cyclopropyl-4-{7,8-dimethyl-4-[(2-methylpropyl)amino]imidazo[1,2-a]quinoxalin-1-yl}benzamide], the pIC50 was 8.65.

Take `CCCCNc1nc2cc(C)c(C)cc2n2c(-c3ccc(C(=O)NC4CC4)c(Cl)c3)cnc12` [Example 2-187, 4-[4-(butylamino)-7,8-dimethylimidazo[1,2-a]quinoxalin-1-yl]-2-chloro-N-cyclopropylbenzamide]: the pIC50 was 7.57.

In the case of `COCCCNc1nc2cc(C)c(C)cc2n2c(-c3ccc(C(=O)NC4CC4)c(Cl)c3)cnc12` [Example 2-196, 2-chloro-N-cyclopropyl-4-{4-[(3-methoxypropyl)amino]-7,8-dimethylimidazo[1,2-a]quinoxalin-1-yl}benzamide], the pIC50 was 6.85.

Turning to `Cc1cc2nc(NCc3cnn(C)c3)c3ncc(-c4ccc(C(=O)NC5CC5)cc4)n3c2cc1C` [Example 2-157, N-cyclopropyl-4-(7,8-dimethyl-4-{[(1-methyl-1H-pyrazol-4-yl)methyl]amino}imidazo[1,2-a]quinoxalin-1-yl)benzamide], the negative-log IC50 (pIC50) was 8.26.

Regarding `N#Cc1ccc2c(c1)nc(NCCCN1CCOCC1)c1ncc(-c3ccc(C(=O)NC4CC4)c(Cl)c3)n12` [Example 2-236, 2-chloro-4-(7-cyano-4-{[3-(morpholin-4-yl)propyl]amino}imidazo[1,2-a]quinoxalin-1-yl)-N-cyclopropylbenzamide], the pIC50 was 4.82.

For the compound `O=C(NC1CC1)c1ccc(-c2cnc3c(NCc4ccc(F)cc4)nc4cc(F)c(F)cc4n23)cc1` [Example 2-95, N-cyclopropyl-4-{7,8-difluoro-4-[(4-fluorobenzyl)amino]imidazo[1,2-a]quinoxalin-1-yl}benzamide], the pIC50 is 7.12.

For `CC(C)CNc1nc2ccccc2n2c(-c3cccnc3F)cnc12` [Example 1-14, 1-(2-fluoropyridin-3-yl)-N-(2-methylpropyl)imidazo[1,2-a]quinoxalin-4-amine], the pIC50 was 5.01.

Regarding `CNC(=O)c1ccc(-c2cnc3c(NCC(C)C)nc4ccccc4n23)cn1` [Example 1-50, N-methyl-5-{4-[(2-methylpropyl)amino]imidazo[1,2-a]quinoxalin-1-yl}pyridine-2-carboxamide], the pIC50 is 6.38.

As for `N#Cc1ccc2c(c1)nc(NCC(O)CO)c1ncc(-c3ccc(C(=O)NC4CC4)c(Cl)c3)n12` (stereo not drawn) [Example 2-254, 2-chloro-4-{7-cyano-4-[(2,3-dihydroxypropyl)amino]imidazo[1,2-a]quinoxalin-1-yl}-N-cyclopropylbenzamide], the negative logarithm of the IC50 (pIC50) was 5.26.

Regarding `O=C(NC1CC1)c1ccc(-c2cnc3c(NCc4ccc5c(c4)OCO5)nc4ccccc4n23)cc1` [Example 2-28, 4-{4-[(1,3-benzodioxol-5-ylmethyl)amino]imidazo[1,2-a]quinoxalin-1-yl}-N-cyclopropylbenzamide], the pIC50 is 7.21.

On to `CNC(=O)Nc1ccc(-c2cnc3c(NCc4ccncc4)nc4cc(F)c(F)cc4n23)cc1` [Example 2-123, 1-(4-{7,8-difluoro-4-[(pyridin-4-ylmethyl)amino]imidazo[1,2-a]quinoxalin-1-yl}phenyl)-3-methylurea], for which the pIC50 is 5.45.

Consider `CC(C)CNc1nc2ccccc2n2c(-c3ccc(C(=O)N4CCCC4)cc3)cnc12` [Example 1-16, (4-{4-[(2-methylpropyl)amino]imidazo[1,2-a]quinoxalin-1-yl}phenyl)(pyrrolidin-1-yl)methanone], for which the pIC50 was 5.44.

The values above are taken from patent US8729082B2, “Substituted imidazoquinoxalines” (Bayer Intellectual Property GmbH, priority 2009, dated 2014).
